Results as given in publication PMC11981937 (Nature, 2025).
Values joined by “and” are separate entries in the source; they are usually repeats but may differ in a detail not shown here. Equal entries are not always repeated.

Columns and labels:
SARS-CoV-2 B1 = type: in vivo, Syrian golden hamster; conditions: pre-exposure
[1] = type: in vivo, Syrian golden hamster; conditions: Molnupiravir 200 mpk BID, pre-exposure
[2] = In vivo mortality (stray panel in source data sheet Fig. 3d)

## CC(C)C(=O)OC[C@H]1O[C@@H](n2ccc(NO)nc2=O)[C@H](O)[C@@H]1O [molnupiravir, reference compound]
SARS-CoV-2 B1; 200 mg/kg/ BID, n=5
  Histopathology score, average: 2.10
  Histopathology score, median: 1.50
  Infectious virus in the lung (TCID50/mg), average Log 10: 4.54 Log 10
  Infectious virus in the lung (TCID50/mg), median Log 10: 4.21 Log 10
  Viral load (viral RNA) in the lung, average Log 10: 9.78 Log 10
  Viral load (viral RNA) in the lung, median Log 10: 9.74 Log 10
SARS-CoV-2 B1; 200 mg/kg/ BID, 200 mg/kg
  Histopathology score, individual animal: 1.5 and 3
  Infectious virus in the lung (TCID50/mg), Log 10, individual animal: 4.01 Log 10 and 3.36 Log 10 and 6.13 Log 10 and 4.21 Log 10 and 4.99 Log 10
  Infectious virus in the lung, individual animal: 10248.12 TCID50/mg and 2288.60 TCID50/mg and 1353038.68 TCID50/mg and 16040.54 TCID50/mg and 98821.18 TCID50/mg
  Viral load (viral RNA) in the lung, Copy number, individual animal: 5.44E+09 and 8.11E+09 and 8.53E+09 and 4.38E+09 and 4.90E+09
  Viral load (viral RNA) in the lung, Log 10, individual animal: 9.74 Log 10 and 9.91 Log 10 and 9.93 Log 10 and 9.64 Log 10 and 9.69 Log 10
SARS-CoV-2 B1; 300 mg per kg BID, reference
  decline in antiviral parameters (in words): not significant
[1]; day 4 vs day 0, group average
  % body weight change compared to day 0, Avg: 3.04%
[1]; day 4 vs day 0, individual animals
  % body weight change compared to day 0: 2.6% and 2.4% and 5% and 3% and 2.2%

## COc1cc(N[C@H](C(=O)c2c[nH]c3ccc(OC(F)(F)F)cc23)c2ccc(Cl)cc2OC)cc(S(C)(=O)=O)c1 [JNJ-1802]
[2]; 802R_0.3, BID, d p.i. 0
  % Survival: 100%
[2]; 802R_0.3, BID, d p.i. 1
  % Survival: 100%
[2]; 802R_0.3, BID, d p.i. 2
  % Survival: 100%
[2]; 802R_0.3, BID, d p.i. 3
  % Survival: 100%
[2]; 802R_0.3, BID, d p.i. 4
  % Survival: 100%
[2]; 802R_0.3, BID, d p.i. 5
  % Survival: 100%
[2]; 802R_0.3, BID, d p.i. 6
  % Survival: 100%
[2]; 802R_0.3, BID, d p.i. 7
  % Survival: 100%
[2]; 802R_0.3, BID, d p.i. 8
  % Survival: 100%
[2]; 802R_0.3, BID, d p.i. 9
  % Survival: 100%
[2]; 802R_0.3, BID, d p.i. 10
  % Survival: 100%
[2]; 802R_0.3, BID, d p.i. 11
  % Survival: 100%
[2]; 802R_0.3, BID, d p.i. 12
  % Survival: 100%
[2]; 802R_0.3, BID, d p.i. 13
  % Survival: 100%
[2]; 802R_0.3, BID, d p.i. 14
  % Survival: 100%
[2]; 802R_0.3, BID, d p.i. 15
  % Survival: 100%
[2]; 802R_0.3, BID, d p.i. 16
  % Survival: 100%
[2]; 802R_0.3, BID, d p.i. 17
  % Survival: 90%
[2]; 802R_0.3, BID, d p.i. 18
  % Survival: 90%
[2]; 802R_0.3, BID, d p.i. 19
  % Survival: 90%
[2]; 802R_0.3, BID, d p.i. 20
  % Survival: 90%
[2]; 802R_0.3, BID, d p.i. 21
  % Survival: 90%
[2]; 802R_0.3, BID, d p.i. 22
  % Survival: 90%
[2]; 802R_0.3, BID, d p.i. 23
  % Survival: 90%
[2]; 802R_0.3, BID, d p.i. 24
  % Survival: 90%
[2]; 802R_0.3, BID, d p.i. 25
  % Survival: 90%
[2]; 802R_1, BID, d p.i. 0
  % Survival: 100%
[2]; 802R_1, BID, d p.i. 1
  % Survival: 100%
[2]; 802R_1, BID, d p.i. 2
  % Survival: 100%
[2]; 802R_1, BID, d p.i. 3
  % Survival: 100%
[2]; 802R_1, BID, d p.i. 4
  % Survival: 100%
[2]; 802R_1, BID, d p.i. 5
  % Survival: 100%
[2]; 802R_1, BID, d p.i. 6
  % Survival: 100%
[2]; 802R_1, BID, d p.i. 7
  % Survival: 100%
[2]; 802R_1, BID, d p.i. 8
  % Survival: 100%
[2]; 802R_1, BID, d p.i. 9
  % Survival: 100%
[2]; 802R_1, BID, d p.i. 10
  % Survival: 100%
[2]; 802R_1, BID, d p.i. 11
  % Survival: 100%
[2]; 802R_1, BID, d p.i. 12
  % Survival: 100%
[2]; 802R_1, BID, d p.i. 13
  % Survival: 100%
[2]; 802R_1, BID, d p.i. 14
  % Survival: 100%
[2]; 802R_1, BID, d p.i. 15
  % Survival: 100%
[2]; 802R_1, BID, d p.i. 16
  % Survival: 100%
[2]; 802R_1, BID, d p.i. 17
  % Survival: 100%
[2]; 802R_1, BID, d p.i. 18
  % Survival: 100%
[2]; 802R_1, BID, d p.i. 19
  % Survival: 100%
[2]; 802R_1, BID, d p.i. 20
  % Survival: 100%
[2]; 802R_1, BID, d p.i. 21
  % Survival: 100%
[2]; 802R_1, BID, d p.i. 22
  % Survival: 100%
[2]; 802R_1, BID, d p.i. 23
  % Survival: 100%
[2]; 802R_1, BID, d p.i. 24
  % Survival: 100%
[2]; 802R_1, BID, d p.i. 25
  % Survival: 100%
[2]; 802R_3, BID, d p.i. 0
  % Survival: 100%
[2]; 802R_3, BID, d p.i. 1
  % Survival: 100%
[2]; 802R_3, BID, d p.i. 2
  % Survival: 100%
[2]; 802R_3, BID, d p.i. 3
  % Survival: 100%
[2]; 802R_3, BID, d p.i. 4
  % Survival: 100%
[2]; 802R_3, BID, d p.i. 5
  % Survival: 100%
[2]; 802R_3, BID, d p.i. 6
  % Survival: 100%
[2]; 802R_3, BID, d p.i. 7
  % Survival: 100%
[2]; 802R_3, BID, d p.i. 8
  % Survival: 100%
[2]; 802R_3, BID, d p.i. 9
  % Survival: 100%
[2]; 802R_3, BID, d p.i. 10
  % Survival: 100%
[2]; 802R_3, BID, d p.i. 11
  % Survival: 100%
[2]; 802R_3, BID, d p.i. 12
  % Survival: 100%
[2]; 802R_3, BID, d p.i. 13
  % Survival: 100%
[2]; 802R_3, BID, d p.i. 14
  % Survival: 100%
[2]; 802R_3, BID, d p.i. 15
  % Survival: 100%
[2]; 802R_3, BID, d p.i. 16
  % Survival: 100%
[2]; 802R_3, BID, d p.i. 17
  % Survival: 100%
[2]; 802R_3, BID, d p.i. 18
  % Survival: 100%
[2]; 802R_3, BID, d p.i. 19
  % Survival: 100%
[2]; 802R_3, BID, d p.i. 20
  % Survival: 100%
[2]; 802R_3, BID, d p.i. 21
  % Survival: 100%
[2]; 802R_3, BID, d p.i. 22
  % Survival: 90%
[2]; 802R_3, BID, d p.i. 23
  % Survival: 90%
[2]; 802R_3, BID, d p.i. 24
  % Survival: 80%
[2]; 802R_3, BID, d p.i. 25
  % Survival: 80%
[2]; 802R_10, BID, d p.i. 0
  % Survival: 100%
[2]; 802R_10, BID, d p.i. 1
  % Survival: 100%
[2]; 802R_10, BID, d p.i. 2
  % Survival: 100%
[2]; 802R_10, BID, d p.i. 3
  % Survival: 100%
[2]; 802R_10, BID, d p.i. 4
  % Survival: 100%
[2]; 802R_10, BID, d p.i. 5
  % Survival: 100%
[2]; 802R_10, BID, d p.i. 6
  % Survival: 100%
[2]; 802R_10, BID, d p.i. 7
  % Survival: 100%
[2]; 802R_10, BID, d p.i. 8
  % Survival: 100%
[2]; 802R_10, BID, d p.i. 9
  % Survival: 100%
[2]; 802R_10, BID, d p.i. 10
  % Survival: 100%
[2]; 802R_10, BID, d p.i. 11
  % Survival: 100%
[2]; 802R_10, BID, d p.i. 12
  % Survival: 100%
[2]; 802R_10, BID, d p.i. 13
  % Survival: 100%
[2]; 802R_10, BID, d p.i. 14
  % Survival: 100%
[2]; 802R_10, BID, d p.i. 15
  % Survival: 80%
[2]; 802R_10, BID, d p.i. 16
  % Survival: 80%
[2]; 802R_10, BID, d p.i. 17
  % Survival: 80%
[2]; 802R_10, BID, d p.i. 18
  % Survival: 80%
[2]; 802R_10, BID, d p.i. 19
  % Survival: 80%
[2]; 802R_10, BID, d p.i. 20
  % Survival: 80%
[2]; 802R_10, BID, d p.i. 21
  % Survival: 80%
[2]; 802R_10, BID, d p.i. 22
  % Survival: 80%
[2]; 802R_10, BID, d p.i. 23
  % Survival: 80%
[2]; 802R_10, BID, d p.i. 24
  % Survival: 80%
[2]; 802R_10, BID, d p.i. 25
  % Survival: 80%
